Laboratory results reported in ChEMBL document CHEMBL5131406, “New bis- and tetrakis-1,2,3-triazole derivatives: Synthesis, DNA cleavage, molecular docking, antimicrobial, antioxidant activity and acid dissociation constants” (2022).
≈ marks a conversion by molar mass, not a printed value. Calls of active or inactive are those of the source. The rule behind the calls is not given here.

Key:
Staphylococcus aureus = assay: Antibacterial activity against Staphylococcus aureus; type: functional
Bacillus cereus = assay: Antibacterial activity against Bacillus cereus; type: functional
Enterococcus hirae = assay: Antibacterial activity against Enterococcus hirae; type: functional
Legionella pneumophila = assay: Antibacterial activity against Legionella pneumophila subsp. pneumophila; type: functional
Pseudomonas aeruginosa = assay: Antibacterial activity against Pseudomonas aeruginosa; type: functional
Escherichia coli = assay: Antibacterial activity against Escherichia coli; type: functional
[1] = Antioxidant activity assessed as ferrous ion chelating activity at 200 ug/ml; type: functional; conditions: dose 200.0 µg/ml
Candida tropicalis = assay: Antifungal activity against Candida tropicalis; type: functional
Candida albicans = assay: Antifungal activity against Candida albicans; type: functional
[2] = Antioxidant activity assessed as DPPH radical scavenging activity at 10 to 200 ug/ml; type: functional; conditions: dose 10-200 µg/ml
DNA = assay: Induction of Escherichia coli supercoiled pBR322 DNA cleavage assessed as increase in formation of linear form of DNA at 250 ug/ml by agarose gel electrophoresis; type: nucleic-acid assay; conditions: dose 250.0 µg/ml
[3] = Antioxidant activity assessed as DPPH radical scavenging activity at 200 ug/ml relative to control; type: functional; conditions: dose 200.0 µg/ml
[4] = Antioxidant activity assessed as ferrous ion chelating activity at 10 ug/ml; type: functional; conditions: dose 10.0 µg/ml

| SMILES | MIC (Staphylococcus aureus) [µg/mL] | MIC (Bacillus cereus) [µg/mL] | MIC (Enterococcus hirae) [µg/mL] | MIC (Legionella pneumophila) [µg/mL] | MIC (Pseudomonas aeruginosa) [µg/mL] | MIC (Escherichia coli) [µg/mL] | Activity [1] [%] | MIC (Candida tropicalis) [µg/mL] | MIC (Candida albicans) [µg/mL] | Activity [2] | Activity (DNA) | Activity [3] [%] | Activity [4] [%] |
| --- | --- | --- | --- | --- | --- | --- | --- | --- | --- | --- | --- | --- | --- |
| CC1(C)S[C@@H]2[C@H](NC(=O)[C@H](N)c3ccccc3)C(=O)N2[C@H]1C(=O)O [AMPICILLIN] | 1 (≈ 2.86 µM) | 1 (≈ 2.86 µM) | 0.5 (≈ 1.43 µM) | 0.5 (≈ 1.43 µM) | 0.5 (≈ 1.43 µM) | 0.5 (≈ 1.43 µM) | – | – | – | – | – | – | – |
| O=C(Cn1cc(-c2ccccc2)nn1)Nc1ccc(NC(=O)Cn2cc(-c3ccccc3)nn2)cc1 | 64 (≈ 134 µM) | 64 (≈ 134 µM) | 128 (≈ 267 µM) | 16 (≈ 33.4 µM) | 64 (≈ 134 µM) | 64 (≈ 134 µM) | 40.1 | 32 (≈ 66.9 µM) | 64 (≈ 134 µM) | Active | Active | – | – |
| O=C(Cn1cc(CCn2cc(CCc3ccccc3)nn2)nn1)Nc1ccc(NC(=O)Cn2cc(CCn3cc(CCc4ccccc4)nn3)nn2)cc1 | 64 (≈ 88.3 µM) | 128 (≈ 177 µM) | 64 (≈ 88.3 µM) | 64 (≈ 88.3 µM) | 64 (≈ 88.3 µM) | 128 (≈ 177 µM) | 17.3 | 16 (≈ 22.1 µM) | 64 (≈ 88.3 µM) | Active | Active | – | – |
| O=C(Cn1cc(CCc2ccccc2)nn1)Nc1ccc(NC(=O)Cn2cc(CCc3ccccc3)nn2)cc1 | 32 (≈ 59.9 µM) | 32 (≈ 59.9 µM) | 64 (≈ 120 µM) | 64 (≈ 120 µM) | 16 (≈ 29.9 µM) | 128 (≈ 239 µM) | 41.4 | 64 (≈ 120 µM) | 64 (≈ 120 µM) | Active | Active | – | – |
| [N-]=[N+]=NCCc1cn(CC(=O)Nc2ccc(NC(=O)Cn3cc(CCN=[N+]=[N-])nn3)cc2)nn1 | 64 (≈ 138 µM) | 64 (≈ 138 µM) | 32 (≈ 68.9 µM) | 32 (≈ 68.9 µM) | 64 (≈ 138 µM) | 32 (≈ 68.9 µM) | 52.8 | 16 (≈ 34.4 µM) | 8 (≈ 17.2 µM) | Active | Active | – | – |
| O=C(Cn1cc(CCBr)nn1)Nc1ccc(NC(=O)Cn2cc(CCBr)nn2)cc1 | 64 (≈ 118 µM) | 64 (≈ 118 µM) | 32 (≈ 59.2 µM) | 32 (≈ 59.2 µM) | 64 (≈ 118 µM) | 128 (≈ 237 µM) | 30.4 | 32 (≈ 59.2 µM) | 64 (≈ 118 µM) | – | Active | 30.5 | – |
| CC(C)CCc1cn(CC(=O)Nc2ccc(NC(=O)Cn3cc(CCC(C)C)nn3)cc2)nn1 | 64 (≈ 137 µM) | 64 (≈ 137 µM) | 32 (≈ 68.6 µM) | 32 (≈ 68.6 µM) | 64 (≈ 137 µM) | 128 (≈ 274 µM) | 70.8 | 32 (≈ 68.6 µM) | 64 (≈ 137 µM) | Active | Active | – | 22 |
| O=C(Cn1cc(CCn2cc(C3CCCC3)nn2)nn1)Nc1ccc(NC(=O)Cn2cc(CCn3cc(C4CCCC4)nn3)nn2)cc1 | 16 (≈ 24.5 µM) | 64 (≈ 98 µM) | 4 (≈ 6.13 µM) | 128 (≈ 196 µM) | 64 (≈ 98 µM) | 128 (≈ 196 µM) | 43.9 | 4 (≈ 6.13 µM) | 32 (≈ 49 µM) | Active | Active | – | – |
| O=C(Cn1cc(C2CCCC2)nn1)Nc1ccc(NC(=O)Cn2cc(C3CCCC3)nn2)cc1 | 64 (≈ 138 µM) | 64 (≈ 138 µM) | 32 (≈ 69.2 µM) | 32 (≈ 69.2 µM) | 64 (≈ 138 µM) | 128 (≈ 277 µM) | 67.1 | 32 (≈ 69.2 µM) | 64 (≈ 138 µM) | Active | Active | – | 20.6 |
| O=C(Cn1cc(CCn2cc(CCBr)nn2)nn1)Nc1ccc(NC(=O)Cn2cc(CCn3cc(CCBr)nn3)nn2)cc1 | 64 (≈ 87.6 µM) | 64 (≈ 87.6 µM) | 32 (≈ 43.8 µM) | 8 (≈ 11 µM) | 64 (≈ 87.6 µM) | 128 (≈ 175 µM) | 45.6 | 32 (≈ 43.8 µM) | 8 (≈ 11 µM) | Active | Active | – | – |
| OC(Cn1cncn1)(Cn1cncn1)c1ccc(F)cc1F [FLUCONAZOLE] | – | – | – | – | – | – | – | 0.5 (≈ 1.63 µM) | 0.5 (≈ 1.63 µM) | – | – | – | – |
| O=C(Cn1cc(CC2CCCCC2)nn1)Nc1ccc(NC(=O)Cn2cc(CC3CCCCC3)nn2)cc1 | 64 (≈ 123 µM) | 64 (≈ 123 µM) | 8 (≈ 15.4 µM) | 16 (≈ 30.8 µM) | 64 (≈ 123 µM) | 4 (≈ 7.71 µM) | 33.8 | 32 (≈ 61.7 µM) | 16 (≈ 30.8 µM) | Active | Active | – | – |
| CCOC(=O)c1cn(CC(=O)Nc2ccc(NC(=O)Cn3cc(C(=O)OCC)nn3)cc2)nn1 | 32 (≈ 68 µM) | 64 (≈ 136 µM) | 64 (≈ 136 µM) | 64 (≈ 136 µM) | 64 (≈ 136 µM) | 128 (≈ 272 µM) | 46.5 | 32 (≈ 68 µM) | 64 (≈ 136 µM) | Active | Active | – | – |
| O=C(Cn1cc(CCn2cc(-c3ccccc3)nn2)nn1)Nc1ccc(NC(=O)Cn2cc(CCn3cc(-c4ccccc4)nn3)nn2)cc1 | 64 (≈ 95.7 µM) | 128 (≈ 191 µM) | 16 (≈ 23.9 µM) | 32 (≈ 47.9 µM) | 64 (≈ 95.7 µM) | 128 (≈ 191 µM) | 27.1 | 64 (≈ 95.7 µM) | 64 (≈ 95.7 µM) | Active | Active | – | – |
| O=C(Cn1cc(C2CC2)nn1)Nc1ccc(NC(=O)Cn2cc(C3CC3)nn2)cc1 | 128 (≈ 315 µM) | 64 (≈ 157 µM) | 64 (≈ 157 µM) | 128 (≈ 315 µM) | 128 (≈ 315 µM) | 64 (≈ 157 µM) | 76.5 | 64 (≈ 157 µM) | 128 (≈ 315 µM) | Active | Active | – | – |
| CC(C)CCc1cn(CCc2cn(CC(=O)Nc3ccc(NC(=O)Cn4cc(CCn5cc(CCC(C)C)nn5)nn4)cc3)nn2)nn1 | 32 (≈ 48.7 µM) | 128 (≈ 195 µM) | 16 (≈ 24.4 µM) | 16 (≈ 24.4 µM) | 32 (≈ 48.7 µM) | 128 (≈ 195 µM) | 44.9 | 32 (≈ 48.7 µM) | 64 (≈ 97.4 µM) | – | Active | 21.9 | – |
| CCOC(=O)c1cn(CCc2cn(CC(=O)Nc3ccc(NC(=O)Cn4cc(CCn5cc(C(=O)OCC)nn5)nn4)cc3)nn2)nn1 | 32 (≈ 48.4 µM) | 32 (≈ 48.4 µM) | 64 (≈ 96.9 µM) | 32 (≈ 48.4 µM) | 64 (≈ 96.9 µM) | 128 (≈ 194 µM) | 33.5 | 64 (≈ 96.9 µM) | 128 (≈ 194 µM) | Active | Active | – | – |
| O=C(Cn1cc(CCn2cc(CC3CCCCC3)nn2)nn1)Nc1ccc(NC(=O)Cn2cc(CCn3cc(CC4CCCCC4)nn3)nn2)cc1 | 64 (≈ 90.3 µM) | 64 (≈ 90.3 µM) | 16 (≈ 22.6 µM) | 32 (≈ 45.1 µM) | 64 (≈ 90.3 µM) | 128 (≈ 181 µM) | 48.9 | 4 (≈ 5.64 µM) | 8 (≈ 11.3 µM) | Active | Active | – | – |
| O=C(Cn1cc(CCn2cc(C3CC3)nn2)nn1)Nc1ccc(NC(=O)Cn2cc(CCn3cc(C4CC4)nn3)nn2)cc1 | 64 (≈ 107 µM) | 64 (≈ 107 µM) | 64 (≈ 107 µM) | 32 (≈ 53.6 µM) | 64 (≈ 107 µM) | 128 (≈ 215 µM) | 42.8 | 64 (≈ 107 µM) | 128 (≈ 215 µM) | Active | Active | – | – |
